Series [1] concerns the target Interstitial collagenase (Homo sapiens) (UniProt P03956). Briefly: Inhibition of Peptidase, Matrix Metalloproteinase-1 (MMP-1) at 10 µM in the Eurofins-Panlabs enzyme assay (Eurofins_assay_114110). As to conditions: Compound concentration 10.0 uM; call rule not given here.
The target of series [2] is CYP2C9 (Homo sapiens, UniProt P11712). Briefly: CYP450, 2C9 Eurofins-Panlabs enzyme assay. The conditions noted are these: compound concentration 10 uM.
Series [3] has as its target CYP1A2 (Homo sapiens, UniProt P05177). As to the kind of experiment: CYP450, 1A2 Eurofins-Panlabs enzyme assay. As to conditions: compound concentration 10 uM.
Series [4] concerns the target Neutrophil elastase (Homo sapiens) (UniProt P08246). Briefly: Peptidase, ELA2 (Neutrophil Elastase 2) Eurofins-Panlabs enzyme assay. As to conditions: Compound concentration 30.0 uM.
Series [5] addresses Adenosine receptor A3 (Homo sapiens) (UniProt P0DMS8). The conditions noted are these: Compound concentration 10.0 uM.
Series [6] deals with Epidermal growth factor receptor (Homo sapiens) (UniProt P00533). Briefly: Protein Tyrosine Kinase, EGF Receptor Eurofins-Panlabs enzyme assay. On the set-up: substrate with concentration. As to conditions: Compound concentration 10.0 uM.
Sequence of Epidermal growth factor receptor (Homo sapiens) (P00533 whole entry): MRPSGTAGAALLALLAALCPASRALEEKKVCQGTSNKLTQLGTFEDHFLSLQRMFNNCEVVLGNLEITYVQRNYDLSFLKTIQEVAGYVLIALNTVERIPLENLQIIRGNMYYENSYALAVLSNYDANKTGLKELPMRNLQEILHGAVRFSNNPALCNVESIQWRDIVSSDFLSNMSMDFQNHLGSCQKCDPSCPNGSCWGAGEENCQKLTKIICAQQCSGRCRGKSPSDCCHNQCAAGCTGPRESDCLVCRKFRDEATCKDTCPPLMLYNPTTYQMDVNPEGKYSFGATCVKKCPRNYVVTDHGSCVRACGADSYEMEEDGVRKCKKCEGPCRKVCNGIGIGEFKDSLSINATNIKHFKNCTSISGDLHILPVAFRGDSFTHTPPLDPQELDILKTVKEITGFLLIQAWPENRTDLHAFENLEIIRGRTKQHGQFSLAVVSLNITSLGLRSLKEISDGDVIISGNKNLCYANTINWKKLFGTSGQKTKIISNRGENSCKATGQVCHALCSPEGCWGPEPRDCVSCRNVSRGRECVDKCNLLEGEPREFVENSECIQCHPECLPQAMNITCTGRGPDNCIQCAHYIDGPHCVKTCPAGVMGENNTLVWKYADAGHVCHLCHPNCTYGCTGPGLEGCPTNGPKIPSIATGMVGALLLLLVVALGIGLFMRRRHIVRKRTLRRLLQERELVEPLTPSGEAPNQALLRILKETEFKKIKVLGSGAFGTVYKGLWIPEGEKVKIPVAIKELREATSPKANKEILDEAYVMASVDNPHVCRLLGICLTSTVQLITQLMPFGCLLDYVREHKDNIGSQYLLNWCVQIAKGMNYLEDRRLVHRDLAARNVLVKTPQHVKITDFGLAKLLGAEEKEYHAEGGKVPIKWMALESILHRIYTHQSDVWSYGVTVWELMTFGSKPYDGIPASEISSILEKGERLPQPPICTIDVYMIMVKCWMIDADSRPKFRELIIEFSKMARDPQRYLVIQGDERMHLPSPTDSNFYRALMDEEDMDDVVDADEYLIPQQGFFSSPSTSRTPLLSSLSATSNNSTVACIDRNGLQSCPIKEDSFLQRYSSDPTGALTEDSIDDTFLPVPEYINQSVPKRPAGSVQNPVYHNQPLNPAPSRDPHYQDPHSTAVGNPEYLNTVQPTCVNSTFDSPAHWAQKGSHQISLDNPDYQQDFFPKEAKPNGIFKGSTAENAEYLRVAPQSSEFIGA
Series [7] has as its target Cysteinyl leukotriene receptor 1 (Homo sapiens) (UniProt Q9Y271). As to the kind of experiment: Inhibition of Leukotriene, Cysteinyl CysLT1 at 10 µM in the Eurofins-Panlabs radioligand binding assay (Eurofins_assay_250460). Set-up: ligand concentration 0.3 nM, non-specific ligand with concentration 0.3 µM Leukotriene D4, incubation time 30 min, incubation temperature 25 °C. As to conditions: Compound concentration 10.0 uM.

Series [8] addresses Carbonic anhydrase 2 (Homo sapiens) (UniProt P00918). As to the kind of experiment: Inhibition of Carbonic Anhydrase II at compound concentration of 10.0 uM in the Eurofins-Panlabs enzyme assay (Eurofins_assay_112020). As to conditions: Compound concentration 10.0 uM. Set-up: substrate with concentration.
Series [9] concerns the target T1, D(1A) dopamine receptor (Homo sapiens, UniProt P21728). As to conditions: Compound concentration 10.0 uM.
The target of series [10] is Caspase-1 (Homo sapiens) (UniProt P29466). Briefly: Inhibition of Peptidase, CASP1 (Caspase 1) at 10 µM in the Eurofins-Panlabs enzyme assay (Eurofins_assay_163000). The conditions noted are these: Compound concentration 10.0 uM.
Series [11] deals with Epidermal growth factor receptor (Homo sapiens) (UniProt P00533). Briefly: Inhibition of Protein Tyrosine Kinase, EGF Receptor at 10 µM in the Eurofins-Panlabs enzyme assay (Eurofins_assay_170020). On the set-up: substrate with concentration. As to conditions: Compound concentration […].
In series [12] the target is Monoamine oxidase A (MAO-A) (Homo sapiens, UniProt P21397). As to the kind of experiment: Inhibition of Monoamine Oxidase MAO-A at compound concentration of 10.0 uM in the Eurofins-Panlabs enzyme assay (Eurofins_assay_140010). As to conditions: recombinant human MAO-A expressed in insect Hi5 cells, probe Kynuramine, 50 uM, compound concentration 10 uM. On the set-up: substrate with concentration 50 uM Kynuramine, incubation time 60 min, incubation temperature 37 C.

Series [13] deals with Sigma intracellular receptor 2 (Homo sapiens, UniProt Q5BJF2). Briefly: Inhibition of Sigma 2 at 10 µM in the Eurofins-Panlabs radioligand binding assay (Eurofins_assay_278200). Set-up: ligand concentration 3 nM. As to conditions: Rattus norvegicus; Compound concentration 10.0 uM.
Sequence of Sigma intracellular receptor 2 (Q5BJF2 whole entry): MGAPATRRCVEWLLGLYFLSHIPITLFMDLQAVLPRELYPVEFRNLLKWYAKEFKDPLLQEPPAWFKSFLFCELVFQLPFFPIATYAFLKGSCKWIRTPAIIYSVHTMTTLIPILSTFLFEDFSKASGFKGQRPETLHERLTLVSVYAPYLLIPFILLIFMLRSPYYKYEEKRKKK
Series [14] is filed under the species Rattus norvegicus. Briefly: Inhibition of Imidazoline I2, Central at 10 µM in the Eurofins-Panlabs radioligand binding assay (Eurofins_assay_241000). As to conditions: Compound concentration 10.0 uM. Set-up: ligand concentration 2 nM.
In series [15] the target is GABA-A receptor; anion channel (Rattus norvegicus) (UniProt O09028+P15431+P18506+P18508+P19969+P20236+P23574+P23576+P28471+P28473+P30191+P62813+P63079+P63138+Q91ZM7+Q9ES14). As to conditions: Compound concentration 10.0 uM.
The target in series [16] is Polyunsaturated fatty acid lipoxygenase ALOX15 (Homo sapiens) (UniProt P16050). As to the kind of experiment: Inhibition of Lipoxygenase 15-LO at 10 µM in the Eurofins-Panlabs enzyme assay (Eurofins_assay_138000). The conditions noted are these: Oryctolagus cuniculus; Compound concentration 10.0 uM.
Sequence of Polyunsaturated fatty acid lipoxygenase ALOX15 (Homo sapiens) (P16050 whole entry): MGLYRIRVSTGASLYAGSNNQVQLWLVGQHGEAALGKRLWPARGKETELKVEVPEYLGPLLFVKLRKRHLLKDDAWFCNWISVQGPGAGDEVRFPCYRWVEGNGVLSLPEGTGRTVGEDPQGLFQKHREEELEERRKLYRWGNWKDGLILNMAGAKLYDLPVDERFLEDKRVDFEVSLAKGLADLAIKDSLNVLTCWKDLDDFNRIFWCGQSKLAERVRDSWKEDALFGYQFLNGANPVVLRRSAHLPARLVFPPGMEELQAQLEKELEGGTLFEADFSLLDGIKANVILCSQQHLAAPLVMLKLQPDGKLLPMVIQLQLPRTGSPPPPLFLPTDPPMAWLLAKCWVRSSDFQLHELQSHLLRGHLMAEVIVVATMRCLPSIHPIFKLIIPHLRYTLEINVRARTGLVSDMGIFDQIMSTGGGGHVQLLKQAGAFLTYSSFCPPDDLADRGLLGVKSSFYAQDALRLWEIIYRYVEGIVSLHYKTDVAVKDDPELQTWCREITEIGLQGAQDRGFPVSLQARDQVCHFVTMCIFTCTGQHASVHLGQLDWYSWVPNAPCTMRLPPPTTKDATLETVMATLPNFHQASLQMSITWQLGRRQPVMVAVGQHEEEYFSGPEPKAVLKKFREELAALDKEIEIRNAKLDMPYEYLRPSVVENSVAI
Series [17] concerns the target C-C chemokine receptor type 5 (Homo sapiens) (UniProt P51681). Briefly: Inhibition of Chemokine CCR5 at 10 µM in the Eurofins-Panlabs radioligand binding assay (Eurofins_assay_217720). As to conditions: Compound concentration 10.0 uM.
Series [18] addresses Sodium-dependent serotonin transporter (Homo sapiens) (UniProt P31645). As to conditions: Compound concentration 10.0 uM.
The target of series [19] is Cannabinoid receptor 1 (Homo sapiens, UniProt P21554). Briefly: Inhibition of Cannabinoid CB1 at compound concentration of 10.0 uM in the Eurofins-Panlabs radioligand binding assay (Eurofins_assay_217030). Set-up: ligand concentration 2 nM, non-specific ligand with concentration 10 uM R(+)-WIN-55,212-2, incubation time 90 min, incubation temperature 37 C.
Sequence of Cannabinoid receptor 1 (P21554 whole entry): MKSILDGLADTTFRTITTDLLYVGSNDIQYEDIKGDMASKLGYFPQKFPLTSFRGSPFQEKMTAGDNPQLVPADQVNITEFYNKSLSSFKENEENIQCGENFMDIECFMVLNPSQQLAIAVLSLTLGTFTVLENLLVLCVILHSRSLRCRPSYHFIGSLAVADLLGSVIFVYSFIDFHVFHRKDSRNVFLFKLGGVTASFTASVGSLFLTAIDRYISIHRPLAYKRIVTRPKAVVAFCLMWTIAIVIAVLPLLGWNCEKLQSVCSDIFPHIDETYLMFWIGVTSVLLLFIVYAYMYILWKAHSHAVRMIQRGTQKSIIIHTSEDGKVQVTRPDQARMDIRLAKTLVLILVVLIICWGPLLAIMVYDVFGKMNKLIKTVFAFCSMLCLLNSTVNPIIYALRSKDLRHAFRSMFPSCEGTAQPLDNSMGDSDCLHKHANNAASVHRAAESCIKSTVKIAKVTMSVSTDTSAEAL
In series [20] the target is CYP2D6 (Homo sapiens, UniProt P10635). As to the kind of experiment: CYP450, 2D6 Eurofins-Panlabs enzyme assay. As to conditions: compound concentration 10 uM.
The target of series [21] is Glucocorticoid receptor (Homo sapiens) (UniProt P04150). As to conditions: Compound concentration 10.0 uM.
Series [22] addresses Histamine H2 receptor (Homo sapiens) (UniProt P25021). The conditions noted are these: Compound concentration 10.0 uM.
The species named for series [23] is Rattus norvegicus. As to the kind of experiment: Testosterone Eurofins-Panlabs radioligand binding assay. On the set-up: ligand concentration 1.5 nM. As to conditions: Compound concentration 10.0 uM.
Series [24] addresses Adenosine receptor A2a (Homo sapiens) (UniProt P29274). The conditions noted are these: Compound concentration 10.0 uM.
The target in series [25] is Melanocortin receptor 4 (Homo sapiens) (UniProt P32245). Briefly: Inhibition of Melanocortin MC4 at 10 µM in the Eurofins-Panlabs radioligand binding assay (Eurofins_assay_251350). Set-up: ligand concentration 0.02 nM. As to conditions: Compound concentration 10.0 uM.
Series [26] has as its target Neuropeptide Y receptor type 1 (Homo sapiens) (UniProt P25929). As to the kind of experiment: Inhibition of Neuropeptide Y Y1 at 10 µM in the Eurofins-Panlabs radioligand binding assay (Eurofins_assay_257010). The conditions noted are these: Compound concentration 10.0 uM.
Series [27] has as its target T2, 5-hydroxytryptamine receptor 3A (Homo sapiens) (UniProt P46098).
T2 sequence (whole entry): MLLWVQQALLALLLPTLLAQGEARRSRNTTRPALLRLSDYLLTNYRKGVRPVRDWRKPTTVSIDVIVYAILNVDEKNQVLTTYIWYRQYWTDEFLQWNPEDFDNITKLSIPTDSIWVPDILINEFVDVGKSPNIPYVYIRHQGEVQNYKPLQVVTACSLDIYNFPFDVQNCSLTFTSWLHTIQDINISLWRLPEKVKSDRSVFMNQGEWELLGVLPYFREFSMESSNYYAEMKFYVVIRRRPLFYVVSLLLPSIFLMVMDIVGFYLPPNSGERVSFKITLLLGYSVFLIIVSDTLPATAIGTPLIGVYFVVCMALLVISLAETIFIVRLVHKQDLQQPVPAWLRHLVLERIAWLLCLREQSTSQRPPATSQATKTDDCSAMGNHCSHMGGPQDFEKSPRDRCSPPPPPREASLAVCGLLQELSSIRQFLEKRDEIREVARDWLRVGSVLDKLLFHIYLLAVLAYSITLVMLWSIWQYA
As to the kind of experiment: Inhibition of Serotonin (5-Hydroxytryptamine) 5-HT3 at 10 µM in the Eurofins-Panlabs radioligand binding assay (Eurofins_assay_271910). Set-up: ligand concentration 0.69 nM. The conditions noted are these: Compound concentration 10.0 uM.

The subject of series [28] is Bacteria. Briefly: Beta-Lactamase Eurofins-Panlabs enzyme assay. Set-up: substrate with concentration. The conditions noted are these: Compound concentration 10.0 uM.
The target of series [29] is T1, D(1A) dopamine receptor. Briefly: GPCRScan assay: inhibition of D1. Set-up: radioligand conc. used [nm] 0.6 – 1.3, parental cells HEKT.

T1 sequence (P21728 whole entry): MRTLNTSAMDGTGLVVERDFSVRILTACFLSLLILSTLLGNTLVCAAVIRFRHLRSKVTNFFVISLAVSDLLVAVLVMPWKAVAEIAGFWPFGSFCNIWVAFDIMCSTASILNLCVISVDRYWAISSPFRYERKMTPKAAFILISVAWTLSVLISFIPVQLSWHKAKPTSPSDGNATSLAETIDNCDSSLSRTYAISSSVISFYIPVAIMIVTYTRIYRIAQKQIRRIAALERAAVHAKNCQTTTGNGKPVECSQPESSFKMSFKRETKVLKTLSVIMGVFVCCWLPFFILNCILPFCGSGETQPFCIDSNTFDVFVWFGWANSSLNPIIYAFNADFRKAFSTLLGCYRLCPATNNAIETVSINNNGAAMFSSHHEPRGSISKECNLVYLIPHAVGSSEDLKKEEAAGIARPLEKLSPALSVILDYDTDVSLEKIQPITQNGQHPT
Sequence of Interstitial collagenase (Homo sapiens) (P03956 whole entry): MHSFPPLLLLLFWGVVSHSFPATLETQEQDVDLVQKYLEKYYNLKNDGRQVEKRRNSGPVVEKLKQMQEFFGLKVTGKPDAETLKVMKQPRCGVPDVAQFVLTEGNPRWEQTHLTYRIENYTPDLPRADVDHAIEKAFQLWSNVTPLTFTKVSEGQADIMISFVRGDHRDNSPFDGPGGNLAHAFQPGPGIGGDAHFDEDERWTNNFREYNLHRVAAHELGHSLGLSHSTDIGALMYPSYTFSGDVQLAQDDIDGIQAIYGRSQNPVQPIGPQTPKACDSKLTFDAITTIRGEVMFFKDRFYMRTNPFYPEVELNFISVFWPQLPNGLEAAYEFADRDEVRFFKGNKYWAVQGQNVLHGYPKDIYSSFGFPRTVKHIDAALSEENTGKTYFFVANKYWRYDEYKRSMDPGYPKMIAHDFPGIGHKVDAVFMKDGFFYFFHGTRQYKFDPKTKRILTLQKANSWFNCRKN
Sequence of CYP2C9 (P11712 whole entry): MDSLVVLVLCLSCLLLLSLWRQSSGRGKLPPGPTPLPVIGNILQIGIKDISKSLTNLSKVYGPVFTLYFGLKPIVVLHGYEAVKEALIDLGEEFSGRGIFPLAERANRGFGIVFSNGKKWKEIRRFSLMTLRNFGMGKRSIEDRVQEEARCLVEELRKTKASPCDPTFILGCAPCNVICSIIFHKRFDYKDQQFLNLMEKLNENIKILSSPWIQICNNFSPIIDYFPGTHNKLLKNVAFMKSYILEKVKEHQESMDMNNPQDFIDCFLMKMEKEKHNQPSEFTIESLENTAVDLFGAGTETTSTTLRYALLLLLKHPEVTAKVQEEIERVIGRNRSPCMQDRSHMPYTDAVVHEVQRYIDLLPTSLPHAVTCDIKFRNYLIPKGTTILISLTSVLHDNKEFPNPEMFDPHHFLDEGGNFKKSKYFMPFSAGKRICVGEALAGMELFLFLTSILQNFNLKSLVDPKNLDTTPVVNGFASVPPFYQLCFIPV
Sequence of Histamine H2 receptor (Homo sapiens) (P25021 whole entry): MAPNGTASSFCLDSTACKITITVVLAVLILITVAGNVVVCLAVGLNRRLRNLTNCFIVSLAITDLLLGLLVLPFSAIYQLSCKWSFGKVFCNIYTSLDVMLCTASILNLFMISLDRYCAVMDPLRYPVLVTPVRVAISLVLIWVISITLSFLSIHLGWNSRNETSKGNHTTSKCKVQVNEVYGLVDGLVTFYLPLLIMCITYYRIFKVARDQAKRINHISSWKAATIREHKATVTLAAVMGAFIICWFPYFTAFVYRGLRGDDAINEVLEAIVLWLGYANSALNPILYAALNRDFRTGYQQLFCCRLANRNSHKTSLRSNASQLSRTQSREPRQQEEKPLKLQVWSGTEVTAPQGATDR
Sequence of Cysteinyl leukotriene receptor 1 (Homo sapiens) (Q9Y271 whole entry): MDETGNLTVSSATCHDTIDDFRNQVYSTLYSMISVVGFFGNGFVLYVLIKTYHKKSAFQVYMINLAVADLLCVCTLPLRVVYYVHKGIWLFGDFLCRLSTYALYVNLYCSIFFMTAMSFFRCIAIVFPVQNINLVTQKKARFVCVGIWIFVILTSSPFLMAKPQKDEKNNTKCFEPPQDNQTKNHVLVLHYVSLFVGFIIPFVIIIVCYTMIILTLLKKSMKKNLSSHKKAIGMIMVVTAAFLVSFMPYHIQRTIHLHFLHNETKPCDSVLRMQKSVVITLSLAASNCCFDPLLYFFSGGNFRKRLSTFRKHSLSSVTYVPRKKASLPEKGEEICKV
Sequence of Neutrophil elastase (Homo sapiens) (P08246 whole entry): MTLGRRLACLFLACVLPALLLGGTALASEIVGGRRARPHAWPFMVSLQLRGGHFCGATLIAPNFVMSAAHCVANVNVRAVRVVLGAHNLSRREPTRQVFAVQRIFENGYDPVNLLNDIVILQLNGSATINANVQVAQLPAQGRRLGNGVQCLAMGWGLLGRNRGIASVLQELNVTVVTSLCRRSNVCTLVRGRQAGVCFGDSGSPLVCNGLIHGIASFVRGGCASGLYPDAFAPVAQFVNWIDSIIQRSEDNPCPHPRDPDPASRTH

For `O=C(NCc1ncc(C(F)(F)F)cc1Cl)c1ccc2c(c1)C1(CCS(=O)(=O)CC1)[C@H](C1CC1)N2S(=O)(=O)c1ccc(F)cc1` [BAY-784], the inhibition (commonly the relative decrease from the control value, in per cent) in series [1] was -4%; in [4], 4%; in series [5], 9%; in series [6], -3%; in [7], 4%; in series [8], -5%. Also, the inhibition in [9] was 6%; in series [10], 8%; in series [11], -8%; in series [13], 20%; in series [14], 10%; in series [15] it was -1%. Besides, the inhibition in series [16] is 11%; in series [17] it was -1%; in [18], 10%; in series [21] it was 13%; in [22], 1%; in series [23] it was 16%. Further, the inhibition in series [24] is 0%; in series [25], 12%; in series [26] it was 17%; in series [27], 19%; in [28], -2%. Also, the inhibition at 10 µM was 32% (not active) in [2], -2% (not active) in series [3] and 4% (not active) in series [20]. In addition, in series [12], the inhibition at 60 min, 10 µM is reported as 3% (not active). Also, the affinity in series [19], expressed as Ki, was 2.57 µM.
Turning to `O=C(NCc1ncc(C(F)(F)F)cc1Cl)c1ccc2c(c1)C1(CCS(=O)(=O)CC1)[C@@H](C1CC1)N2S(=O)(=O)c1ccc(F)cc1` [BAY-786], the Ki (usually a dissociation constant, usually derived from enzyme kinetics or from competition with a known ligand) in series [29] amounted to 10 µM.

The values are drawn from ChEMBL document CHEMBL4507266, “Data for DCP probe BAY-784” (2021).
